Reference: PubChem BioAssay AID1508591

Conditions: rat; liver microsomes; pH 7.4; 15.0 min; 1.0 µM

For O=C(Nc1ncc(Cc2cccc(C(F)(F)F)c2)s1)c1ccc(-c2cccc([N+](=O)[O-])c2)o1, the half-life was > 30 min.

With Cc1ccc(S(=O)(=O)Nc2cnccc2C(=O)Nc2nc(-c3ccc(F)cc3)cs2)cc1 the half-life was > 30 min.

CNC1(c2ccccc2Cl)CCCCC1=O (configuration not stated) gave a half-life of 4.44 min.

For NCC1CCC(C(=O)Oc2ccc(CCC(=O)O)cc2)CC1 (configuration not stated), the half-life was > 30 min.

In the case of COc1cc(N2CCC(N3CCN(C)CC3)CC2)ccc1Nc1ncc(Cl)c(Nc2ccccc2P(C)(C)=O)n1, the half-life is reported as > 30 min.

For CCc1cccc(-n2nnc(-c3nsc(NC(=O)c4cccc(OC)c4)n3)c2C)c1, the half-life was 12.8 min.

For COc1cccc(CNc2ccc(S(=O)(=O)Nc3nc4ccccc4o3)cc2)c1O, the half-life was > 30 min.

Work on Cc1ccc(S(=O)(=O)Nc2cnccc2C(=O)Nc2nc(-c3ccccc3Cl)cs2)cc1 yielded a half-life of 13 min.

With Cc1cc(C)nc(NC(=S)N2CCN(c3cccc(C(F)(F)F)c3)CC2)c1 the half-life was > 30 min.

With Cc1ccc(C(=O)Nc2nc3nc(C)cc(=O)n3[nH]2)cc1 the half-life was > 30 min.

In the case of CCN(c1ccccc1)S(=O)(=O)c1cc(C(=O)Nc2ccc(Br)cc2)ccc1F, the half-life is reported as 1.5 min.

O=C1CCCC2=C1C1(CCS(=O)(=O)C1)N=C(Nc1nc3ccccc3o1)N2 (configuration not stated) showed a half-life of 17 min.

Work on Cc1ccc(S(=O)(=O)Nc2cnccc2C(=O)Nc2ccc(N3CCOCC3)cc2)cc1 yielded a half-life of 23 min.

With CCOc1ccc(-c2nc(SCC(=O)Nc3ccc(C)c(C)c3)n3[nH]c(=O)cc3n2)cc1 the half-life was 19.9 min.

Compound COC(=O)c1ccc2nc(NC3=NC(c4[nH]ncc4Cl)C4=C(CCCC4=O)N3)oc2c1 (configuration not stated) has a half-life of 5.9 min.

For CCN1CCC(N(Cc2ccc3c(c2)OCO3)C(=O)Nc2cc(Cl)ccc2C(=O)OC)CC1, the half-life was 6.72 min.

COC(=O)C1=COC(C)C2CN3CCc4c([nH]c5cc(OC)c(OC)cc45)C3CC12 (configuration not stated) gave a half-life of 26.3 min.

For FC(F)(F)c1cccc(N2CCN(C(=S)Nc3cc4ccccc4cn3)CC2)c1, the half-life was > 30 min.

For O=C(CCCCCCC(=O)Nc1ccccc1)NO, the half-life was > 30 min.

For CCOc1ccc(CCNC(=O)c2cccc(C(=O)c3ccccc3)c2)cc1OCC, the half-life was 1.66 min.

With CNC(=O)c1ccccc1Nc1nc(Nc2ccc(N3CCOCC3)cc2OC)ncc1Cl the half-life was > 30 min.

For COc1ccc(S(=O)(=O)N(C(=O)C(C)C)c2ccc3oc(=O)sc3c2)cc1, the half-life was 2.2 min.

In the case of c1ccc(-c2ccc(CNc3nc(-c4ccccn4)nnc3-c3ccccc3)cc2)cc1, the half-life is reported as 7.73 min.

For C[C@@]12O[C@@H](C[C@]1(O)CO)n1c3ccccc3c3c4c(c5c6ccccc6n2c5c31)CNC4=O, the half-life was > 30 min.

In the case of CCCCCCOc1ccc(OC(=O)c2ccncc2)cc1, the half-life is reported as 2.32 min.

In the case of Cc1cc(NS(=O)(=O)c2ccc(NCCc3ccc(Cl)c(Cl)c3)cc2)no1, the half-life is reported as 12 min.

In the case of COc1ccc(CNC(=O)CCCn2nc(C)c3c(C)n(-c4ccc(C)cc4)nc3c2=O)cc1OC, the half-life is reported as 4.18 min.

Cc1cnc(N2CCC(C(N)=O)CC2)nc1-c1cccc(N(C)C)c1 showed a half-life of 8.45 min.

Cn1c(=O)cc(C(=O)NC2CCCc3c2[nH]c2c(Cl)cccc32)c2ccccc21 (configuration not stated) gave a half-life of 10.1 min.

With COc1cnccc1-c1nc(Nc2ccc(F)c(F)c2)c2ccccc2n1 the half-life was > 30 min.

Compound COc1ccc(-c2ccc3ncc(Nc4ccncc4)n3n2)cc1OC has a half-life of 23 min.

With Cc1ccc(S(=O)(=O)Nc2ccc(F)cc2C(=O)Nc2nc(-c3ccccc3)cs2)cc1 the half-life was 3 min.

With O=C(O)c1c(Sc2ccccc2)c2cc(Cl)ccc2n1Cc1ccc(Cl)cc1 the half-life was 26.6 min.

O=C1Nc2ccc(-c3cccc(C(F)(F)F)c3)cc2C(=O)N2CCN(C(=O)COc3ccccc3)C[C@H]12 gave a half-life of 5.73 min.

In the case of Cc1cccc(OCC(=O)Nc2ccc3nc(Nc4cccc(Cl)c4)cc(C)c3c2)c1, the half-life is reported as > 30 min.

Work on COC(=O)c1cc(Cl)ccc1NC(=O)CSc1ncc(S(=O)(=O)c2ccc(Br)cc2)c(=O)[nH]1 yielded a half-life of 18 min.

Compound CC1=C(C(=O)Nc2ccccc2C)C(c2ccccc2Br)N=C(Nc2nc3ccccc3o2)N1 (configuration not stated) has a half-life of 12 min.

In the case of CC1(COc2ccc3c(c2)ncn3-c2ccc3cccc(N4CCC(N)CC4)c3n2)COC1, the half-life is reported as > 30 min.

In the case of O=C1CCCC2=C1C1(CCCC1)N=C(Nc1nc3ccccc3o1)N2, the half-life is reported as 2.7 min.

Oc1c(C(Nc2nccs2)c2ccc(C(F)(F)F)cc2)ccc2cccnc12 (configuration not stated) gave a half-life of 3.54 min.

With Fc1cc(Nc2nc(-c3ccncc3)nc3ccccc23)ccc1-c1cccc(OC(F)F)c1 the half-life was > 30 min.

Compound CC1CCCCN1c1ncnc(N)c1[N+](=O)[O-] (configuration not stated) has a half-life of 15 min.

In the case of Cc1ccc(Nc2nc(NCCO)c3ccccc3n2)cc1C, the half-life is reported as 2.42 min.

In the case of CC(C)(C)C(O)C(Oc1ccc(Cl)cc1)n1cncn1 (configuration not stated), the half-life is reported as > 30 min.

Work on CC(C)Oc1ccc(C(=O)Nc2ccc3c(c2)CCCN3C(=O)c2cccs2)cc1 yielded a half-life of 4.8 min.

COC(=O)c1ccc(O)c2ncc(N3CCN(C)CC3)cc12 gave a half-life of 4.16 min.

For C=CC(=O)N1CCCN(c2cc(NCCC(=O)O)nc(-c3ccccn3)n2)CC1, the half-life was > 30 min.

For COC(C)(C)CCn1nc(Nc2c(C)cccc2C)c2cnc(Nc3ccc(OCCN4CCCC4)c(F)c3)nc21, the half-life was 3.28 min.

In the case of Cc1ccc(-c2csc(NC(=O)c3ccncc3NS(=O)(=O)c3ccc(C)cc3)n2)cc1, the half-life is reported as 7.3 min.

With NCC(=O)Nc1cncc(-c2nn3c(=O)cc(N4CCNCC4)nc3s2)c1 the half-life was > 30 min.

c1cnc(N2CCN(Cc3c[nH]c4ccccc34)CC2)nc1 gave a half-life of 1.6 min.

Fc1ccc(Nc2nccc(-c3ccncc3)n2)cc1F showed a half-life of 16 min.

For O=C(NCC1(c2nc(-c3ccccc3)cs2)CCOCC1)c1cccc(-c2noc(C(F)(F)F)n2)c1, the half-life was 2.92 min.

Work on CCN1CCN(c2ncc3c(n2)CCN(Cc2cc(Br)cs2)C3)CC1 yielded a half-life of 2.7 min.

For CC[C@H](NC(=O)[C@H](C)NC)C(=O)N1C[C@@H](O)C[C@H]1Cc1c(-c2[nH]c3cc(F)ccc3c2C[C@H]2C[C@H](O)CN2C(=O)[C@H](CC)NC(=O)[C@H](C)NC)[nH]c2cc(F)ccc12, the half-life was > 30 min.

CC1=C[C@@H](CNC(C)C)[C@H](C(C)C)C[C@H]1Cc1nnc(-c2ccncc2)o1 showed a half-life of 4.76 min.

In the case of N[C@H]1CN(c2c(F)cc3c(=O)c(C(=O)O)cn(C4C[C@@H]4F)c3c2Cl)CC12CC2 (some centres not stated), the half-life is reported as > 30 min.

CNc1oc(-c2cccc(-c3ccccc3)c2)nc1C#N gave a half-life of 12 min.

Cc1ccc(O)c(-c2cc(-c3ccccc3C)[nH]n2)c1 showed a half-life of 24.4 min.

CCOc1ccc(CCNC(=O)c2cc3cccnc3n2Cc2cccc(C)c2)cc1OCC gave a half-life of 1.7 min.

With CN1C(=O)c2ccccc2[S@](=O)c2ccc(C(=O)NCc3cccnc3)cc21 the half-life was > 30 min.

CC(C)C[C@H]1C(=O)N2CCC[C@H]2[C@]2(O)O[C@](NC(=O)[C@@H]3C=C4c5cccc6[nH]c(Br)c(c56)C[C@H]4N(C)C3)(C(C)C)C(=O)N12 gave a half-life of 1.59 min.

In the case of C[C@H]1CN(C(=O)Nc2ccc(F)cc2)C[C@@H]1c1nc(-c2ccccc2)no1, the half-life is reported as > 30 min.

With Cc1ccccc1NC(=O)Nc1cccs1 the half-life was > 30 min.

With CCN(CC)CCCNC(=O)c1oc2c(c1C)-c1nn(Cc3ccc(Cl)cc3)cc1CC2 the half-life was > 30 min.

In the case of COc1ccc(-n2nc(C3CCCN(C(=O)Nc4ccccc4)C3)[nH]c2=O)cc1 (configuration not stated), the half-life is reported as > 30 min.

In the case of COc1oc(-c2cccc3ccccc23)nc1C(=O)O, the half-life is reported as > 30 min.

Compound COc1ccc(NC(=O)c2ccc[nH]2)cc1S(=O)(=O)Nc1ccc(Br)cc1 has a half-life of 7.44 min.

Work on Cc1ccnc(NC(=S)N2CCC(c3cccc(C(F)(F)F)c3)CC2)c1 yielded a half-life of 24 min.

With Nc1c(-c2ccccc2)cc[nH]c1=O the half-life was > 30 min.

For Cc1cccc([C@H]2[C@@H]3C=CC[C@@H](C)[C@@H]3C(=O)N2Cc2ccccc2)c1, the half-life was 1.4 min.

For O=C(Nc1cncc(Cc2ccccc2)c1)c1ccc(-c2cccc([N+](=O)[O-])c2)o1, the half-life was 2.4 min.
